Literature values as cited in paper PMC3922827 (Journal of the American Chemical Society, 2013).
Where two headings read alike, the source gives them in different places. No end group written: not given here. *: point of attachment. For = O=C*

Conditions: graded or all-or-none class

Row | Substance | type of dye release from lipid vesicles | type of dye release from lipid vesicles (LUVs)
1 | AGWLLGKINLKALAALAKKIL-NH2 [TP10W] | graded | 
2 | For-MAQKIISTIGKLVKWIIKTVNKFTKK [DL-1] |  | all-or-none
